From ChEMBL document CHEMBL1144507, “Synthesis and antifungal activity of (Z)-5-arylidenerhodanines” (2007)
In brackets after ≈: the same amount, converted by molar mass.

Assays:
[1] = system: Trichophyton rubrum; assay: Antifungal activity against Trichophyton rubrum C110 after 48 hrs; assay type: functional
[2] = system: Nannizzia gypsea; assay: Antifungal activity against Microsporum gypseum C115 after 48 hrs; assay type: functional
[3] = system: Trichophyton rubrum; assay: Antifungal activity against Trichophyton rubrum C136 after 48 hrs; assay type: functional
[4] = system: Trichophyton rubrum; assay: Antifungal activity against Trichophyton rubrum C140 after 48 hrs; assay type: functional
[5] = system: Trichophyton rubrum; assay: Antifungal activity against Trichophyton rubrum C135 after 48 hrs; assay type: functional
[6] = system: Trichophyton benhamiae; assay: Antifungal activity against Trichophyton mentagrophytes ATCC 9972 after 48 hrs; assay type: functional, Arthroderma benhamiae; conditions: ATCC 9972, 48 h
[7] = system: Trichophyton benhamiae; assay: Antifungal activity against Trichophyton mentagrophytes C943 after 48 hrs; assay type: functional, Arthroderma benhamiae
[8] = system: Trichophyton benhamiae; assay: Antifungal activity against Trichophyton mentagrophytes C539 after 48 hrs; assay type: functional, Arthroderma benhamiae
[9] = system: Trichophyton benhamiae; assay: Antifungal activity against Trichophyton mentagrophytes C108 after 48 hrs; assay type: functional, Arthroderma benhamiae
[10] = system: Candida albicans; assay: Antifungal activity against Candida albicans ATCC 10231 after 48 hrs; assay type: functional; conditions: ATCC 10231, 48 h
[11] = system: Aspergillus flavus; assay: Antifungal activity against Aspergillus flavus ATCC 9170 after 48 hrs; assay type: functional; conditions: ATCC 9170, 48 h
[12] = system: Trichophyton rubrum; assay: Antifungal activity against Trichophyton rubrum C137 after 48 hrs; assay type: functional
[13] = system: Trichophyton rubrum; assay: Antifungal activity against Trichophyton rubrum C139 after 48 hrs; assay type: functional
[14] = system: Aspergillus fumigatus; assay: Antifungal activity against Aspergillus fumigatus ATCC 26934 after 48 hrs; assay type: functional; conditions: ATCC 26934, 48 h
[15] = system: Aspergillus niger; assay: Antifungal activity against Aspergillus niger ATCC 9029 after 48 hrs; assay type: functional; conditions: ATCC 9029, 48 h
[16] = system: Trichophyton benhamiae; assay: Antifungal activity against Trichophyton mentagrophytes C364 after 48 hrs; assay type: functional, Arthroderma benhamiae
[17] = system: Cryptococcus neoformans; assay: Antifungal activity against Cryptococcus neoformans ATCC 32264 after 48 hrs; assay type: functional; conditions: ATCC 32264, 48 h
[18] = system: Trichophyton benhamiae; assay: Antifungal activity against Trichophyton mentagrophytes C738 after 48 hrs; assay type: functional, Arthroderma benhamiae
[19] = system: Trichophyton rubrum; assay: Antifungal activity against Trichophyton rubrum C113 after 48 hrs; assay type: functional
[20] = system: Saccharomyces cerevisiae; assay: Antifungal activity against Saccharomyces cerevisiae ATCC 9763 after 48 hrs; assay type: functional; conditions: ATCC 9763, 48 h

MIC [1]: 3.9 µg/mL (≈ 13.5 µM)
MIC [2]: 3.9 µg/mL (≈ 13.5 µM)
MIC [3]: 3.9 µg/mL (≈ 13.5 µM)
MIC [4]: 3.57 µg/mL (≈ 12.3 µM)
MIC [5]: 3.9 µg/mL (≈ 13.5 µM)
MIC [6]: 3.9 µg/mL (≈ 13.5 µM)
MIC [7]: 0.97 µg/mL (≈ 3.35 µM)
MIC [8]: 1.95 µg/mL (≈ 6.74 µM)
MIC [9]: 1.95 µg/mL (≈ 6.74 µM)
MIC [10]: 250 µg/mL (≈ 864 µM)
MIC [11]: > 250 µg/mL
MIC [12]: 1.95 µg/mL (≈ 6.74 µM)
MIC [13]: 3.9 µg/mL (≈ 13.5 µM)
MIC [14]: > 250 µg/mL
MIC [15]: > 250 µg/mL
MIC [16]: 0.97 µg/mL (≈ 3.35 µM)
MIC [17]: 15.6 µg/mL (≈ 53.9 µM)
MIC [18]: 1.95 µg/mL (≈ 6.74 µM)
MIC [19]: 3.9 µg/mL (≈ 13.5 µM)
MIC [20]: 250 µg/mL (≈ 864 µM)
Structure (SMILES): O=C1NC(=S)S/C1=C\c1ccccc1C(F)(F)F
